{
  "source": "patent US8455639B2",
  "about": "“Crystalline form of an organic compound” (Sandoz AG, priority 2008, dated 2013)",
  "key": {"[1]": {"test": "Storage stability at ambient temperature, measured by HPLC (stability and purity test)", "type": "physicochemical", "conditions": "samples stored for 4 months at ambient temperature", "method": "Stability and Purity Test:\nApparatus: Agilent 11 Series • Column: YMC-Pro C18; 150×4,6 mm, S-5 μm, 120A • Eluent: mobile phase A: 3.884 g of amidosulfonic acid in 1000 g of water; mobile phase B: 3.884 g of amidosulfonic acid in 250 g of water and 588 g of acetonitrile.\nMeasurement at a wavelength of 220 nm; injection volume 7 μl, oven temperature 40° C., Flow 1.0 ml/min\nSample preparation: approximately 10 mg of a sample of the crystalline form of alogliptin free base are dissolved in 10 ml of acetonitrile and the solution is filled up to 25 ml with water\nRun time 20 min • Gradient: […]"}, "[2]": {"test": "Hygroscopicity: water uptake on stepwise increase/decrease of relative humidity", "type": "physicochemical", "conditions": "for water uptake: value at end of the one hour storage period", "method": "In these experiments humidity was increased/decreased stepwise. Starting at 0% relative humidity every one hour the humidity level was increased by 10% relative humidity. The gain/loss of weight was recorded continuously. The values given represent the value at the end of the one hour storage period at the indicated relative humidity level.\nThis water is easily lost, e.g. by storage at a relative humidity of 60% or less."}},
  "data": [
    {"smiles": "Cn1c(=O)cc(N2CCC[C@@H](N)C2)n(Cc2ccccc2C#N)c1=O", "note": "[2-[6-[3(R)-aminopiperidin-1-yl]-3-methyl-2,4-dioxo-1,2,3,4-tetrahydropyrimidin-1-ylmethyl]-benzonitrile]", "values": [
      {"measurement": "degradation (chemical stability)", "setting": "[1]", "result": "no degradation"},
      {"measurement": "change in crystal structure / formation of a hydrated form", "setting": "[2]; exposed to extremely high relative humidity", "result": "No change in crystal structure nor the formation of a hydrated form"},
      {"measurement": "hygroscopicity", "setting": "[2]; in words", "result": "low hygroscopicity"},
      {"measurement": "water uptake", "setting": "[2]; stored at about 25° C. for 60 min at a relative humidity of 50%", "result": "about 0.4 % w/w"},
      {"measurement": "water uptake", "setting": "[2]; stored at about 90% relative humidity at about 25° C. for 60 min", "result": "about 1.6 % w/w"}
    ]}
  ]
}
